“And” between values parts separate entries of the source, which are not always exact repeats. Equal entries are not always repeated.
What was measured:
[1] = system: DU-145, SK-MEL-28, MDA-MB-231, OVCAR-3; assay: Uptake of gallium corroles (ImageXpress confocal), cell lines taken together; type: cell-based, human; details: 30 μM
Method: The intracellular uptake of gallium corroles was quantified using the ImageXpressultra laser point-scanning confocal microscope (Molecular Devices). The fluorescence image acquisition settings were as previously reported (Lim P, et al. (2012), Chem Res Toxicol 25(2):400-409.). Cells (DU-145, SK-MEL-28, MDA-MB-231, and OVCAR-3) were seeded in 96-well dishes (8×10^3 cells per well in 0.1 mL) and allowed to attach overnight. Complex 1, 2, 3, or 4 was added directly to cell media at 30 μM final concentration or media only control, and incubated for 0.25, 1, 3, or 24 h at 37° C. in the dark under a 5% CO2 atmosphere. Cells were fixed and labeled in situ with WGA-Alexa Fluor 488 conjugate and DAPI to allow for the identification of cell boundary and nucleus, respectively. The quantification of blue (DAPI) fluorescence signals in each sample yielded the total number of cells in that population. Corresponding determination of red (corrole) fluorescence within each cell, corrected for background fluorescence from untreated cells, provided the number of cells containing corroles. For each corrole concentration at various time points, fluorescence data were obtained for 1,000-22,000 individual cells. Data acquisitions and analyses were performed as described (Lim P, et al. (2012), Chem Res Toxicol 25(2):400-409). The percentage of corrole-positive cells and the median fluorescence intensity (median RFU) for each treatment were plotted in a three-axis graph using Microsoft Office Excel 2007 (Microsoft Corporation).
To quantify the kinetics of intracellular uptake and accumulation of each derivative, ImageXpressultra, a laser point-scanning confocal microscope, was used for analyses. […] Cells were incubated at 37° C. in the dark for 0.25, 1, 3, or 24 h. […] Within 15 min, Complex 4 fluorescence was observable in ˜80% of ovarian cancer cells, 97% of breast cancer cells, and >99% of prostate cancer and melanoma cells, whereas up to 3 and 24 h were required to label >80% of cells from all four cancer lines with Complexes 3 and 2, respectively. […]

SK-MEL-28 = assay: MTS assay (cytotoxicity); type: cell-based, human; details: SK-MEL-28 (melanoma), 72 h exposure in the dark, mean of three experiments
Source text: (§1) Reagents were obtained from the indicated suppliers: HBSS without phenol red and trypsin-EDTA (0.25%), Invitrogen/Gibco; PBS, Mediatech; 4′,6-diamidino-2-phenylindole dihydrochloride (DAPI) and DMSO, Sigma-Aldrich; paraformaldehyde, Electron Microscopy Sciences; WGA, Alexa Fluor 488 conjugate, Invitrogen/Molecular Probes; and ProLong Gold Antifade Mountant with DAPI, Life Technologies. Human Cancer Cell Lines. Four cell lines from the NCI60 cell panel (Shoemaker RH (2006) The NCI60 human tumour cell line anticancer drug screen. Nat Rev Cancer 6(10):813-823) representing four distinct tumor types were used in this study: DU-145, prostate; MDA-MB-231, breast; SK-MEL-28, melanoma; and OVCAR-3, ovarian. Cells were grown in RPMI 1640 cell culture medium (Mediatech) containing 2 mM L-glutamine, supplemented with 10% FBS (Omega Scientific), and maintained at 37° C. under 5% CO2 in a humidified incubator.
(§2) At the time of drug treatment, stock solutions of 1-4 were diluted to 10-fold the desired final test concentrations with RPMI medium 1640. Aliquots of […] of these diluted solutions were added to the appropriate microtiter wells containing 90 μL of medium, resulting in the required final drug concentrations (eight concentrations per compound, ranging from 0.3 to 600 μM). The final concentration of DMSO in test culture was <1%. […] Following 72 h of exposure at 37° C., cell viability was determined using the MTS assay (CellTiter 96 Aqueous One Cell Proliferation Assay; Promega) according to the manufacturer's instructions. Absorbances were measured using a microplate reader (Synergy 4; Biotek Instruments) at 490 nm. Experiments were performed in triplicate and each dose-response curve represents the mean of three or more independent experiments. Spectrophotometric data were analyzed by sigmoid dose-response, nonlinear regression analysis; the IC50, Emax values, and associated SE were calculated using GraphPad Prism 6 (GraphPad Software).
(§3) The effects of bis-sulfonate, carboxylate, and aminocaproate ring substituents on gallium corrole cytotoxicities were examined using four human cancer cell lines, representing tumors of different origin selected based on previously described sensitivities.

OVCAR-3 = assay: MTS assay (cytotoxicity); type: cell-based, human; details: OVCAR-3 (ovarian), 72 h exposure in the dark, mean of three experiments
Source text: as §1, §2, §3

MDA-MB-231 = assay: MTS assay (cytotoxicity); type: cell-based, human; details: MDA-MB-231 (breast), 72 h exposure in the dark, mean of three experiments
Source text: as §1, §2, §3

DU-145 = assay: MTS assay (cytotoxicity); type: cell-based, human; details: for IC50: DU-145 (prostate), 72 h exposure in the dark, MTS assay, mean of three experiments
Source text: as §1, §2, §3

MDA-MB-231 cells = details: literature values, read-out: IC50 reported for cisplatin; cited from earlier work
human cancer cells = details: previous work, cited from earlier work
murine model animals = details: previous work; cited from earlier work

Row | Compound | IC50 (SK-MEL-28) | IC50 (OVCAR-3) | IC50 (MDA-MB-231) | IC50 (DU-145) | effect of pyridinium substitution (in place of bis-sulfonic acids) on uptake, activity, toxicity (human cancer cells) | other results
1 | Fc1c(F)c(F)c(C2=C3C=CC4=[N+]3[Ga-]35[n]6c2ccc6C(c2c(F)c(F)c(F)c(F)c2F)=c2ccc([n]23)=C(c2c(F)c(F)c(F)c(F)c2F)c2ccc4[n]25)c(F)c1F (stereo not shown) [Complex 1, gallium(III) tris(pentafluorophenyl)corrole] | 61.3 µM | 58.1 µM | 101 µM | 135 µM |  | time required for significant uptake (≥80% cells) ([1]; melanoma, ovarian, and breast cancer cell lines): 24 h
2 | N.N.[Cl][Pt][Cl] [cisplatin] |  |  |  |  |  | IC50 (MDA-MB-231 cells): 46.4 µM and 39 µM
3 | O=C(O)C1=CC2=[N+]3C1=C(c1c(F)c(F)c(F)c(F)c1F)c1ccc4[n]1[Ga-]31[n]3c(ccc32)C(c2c(F)c(F)c(F)c(F)c2F)=c2ccc([n]21)=C4c1c(F)c(F)c(F)c(F)c1F (stereo not shown) [Complex 4] | 4.8 µM | 11.1 µM | 15.3 µM | 12.9 µM |  | IC50 lower than bis-sulfonated Complex 2 (DU-145; DU-145, 72 h, MTS): −12 fold
4 | COc1ccc(C2=c3ccc4[n]3[Mn-]35[n]6c(ccc62)C(c2cc[n+](C)cc2)=C2C=CC(=[N+]23)c2ccc([n]25)C=4c2cc[n+](C)cc2)cc1 (stereo not shown) [Complex 5] |  |  |  |  | improve uptake and activity | 
5 | C[n+]1ccccc1C1=C2C=CC3=[N+]2[Mn-]24[n]5c1ccc5C(c1cccc[n+]1C)=c1ccc([n]12)=C(c1cccc[n+]1C)c1ccc3[n]14 (stereo not shown) [Complex 6] |  |  |  |  | completely ablated toxicity | 
6 | O=S(=O)(O)C1=CC2=C(c3c(F)c(F)c(F)c(F)c3F)c3ccc4[n]3[Ga-]35[n]6c(cc(S(=O)(=O)O)c6C(c6c(F)c(F)c(F)c(F)c6F)=c6ccc([n]63)=C4c3c(F)c(F)c(F)c(F)c3F)C1=[N+]25 (stereo not shown) [Complex 2] | 131 µM | 274 µM | 129 µM | 159 µM |  | time required to label >80% of cells from all four cancer lines ([1]; 37° C., dark): ≤ 24 h; IC50 (DU-145; listed as 2): 159 µM; antitumor activity in vitro (human cancer cells; human cancer cells): potent antitumor activity; mechanism of cytotoxicity: cell cycle effect (human cancer cells; numerous cancer cell lines in vitro): induce cell cycle arrest at late M phase; antitumor activity in vivo (murine model animals): potent antitumor activity
